Data as given in ChEMBL document CHEMBL5233250, “Factor XIIIa inhibitors as potential novel drugs for venous thromboembolism” (Eur J Med Chem, 2020).
pIC50, pKi: −log10 of the molar value. Each block holds one compound with its values, some of them ahead of it. Numbered stars: 1 amine (or outer) side, 2 acyl side, 3 side chain; on linkers, the order of the positions; unused ones are H or OH. Square brackets hold non-standard residues; d marks the D form. Peptide text beside a SMILES is read from it. * marks the point of attachment. ξ: configuration not given here. X2 = COC(=O)/C=C/CC[C@H](N[*:1])C(=O)[*:2]; Ile(3ξ) = CCC(C)[C@H](N)C(=O)O; X4 = CCOC(=O)c1nc(C(=O)*)cs1; X3 = O=C(c1nc2ccccc2[nH]1)*; Nle = CCCC[C@H](N)C(=O)O; X1 = Cc1nc(C(=O)*)cs1

Legend:
[1] = molecular target: T1, Protein-glutamine gamma-glutamyltransferase (Homo sapiens, UniProt P21980); experiment: Inhibition of tissue transglutaminase (unknown origin); type: tissue-based
T1 sequence (P21980 whole entry): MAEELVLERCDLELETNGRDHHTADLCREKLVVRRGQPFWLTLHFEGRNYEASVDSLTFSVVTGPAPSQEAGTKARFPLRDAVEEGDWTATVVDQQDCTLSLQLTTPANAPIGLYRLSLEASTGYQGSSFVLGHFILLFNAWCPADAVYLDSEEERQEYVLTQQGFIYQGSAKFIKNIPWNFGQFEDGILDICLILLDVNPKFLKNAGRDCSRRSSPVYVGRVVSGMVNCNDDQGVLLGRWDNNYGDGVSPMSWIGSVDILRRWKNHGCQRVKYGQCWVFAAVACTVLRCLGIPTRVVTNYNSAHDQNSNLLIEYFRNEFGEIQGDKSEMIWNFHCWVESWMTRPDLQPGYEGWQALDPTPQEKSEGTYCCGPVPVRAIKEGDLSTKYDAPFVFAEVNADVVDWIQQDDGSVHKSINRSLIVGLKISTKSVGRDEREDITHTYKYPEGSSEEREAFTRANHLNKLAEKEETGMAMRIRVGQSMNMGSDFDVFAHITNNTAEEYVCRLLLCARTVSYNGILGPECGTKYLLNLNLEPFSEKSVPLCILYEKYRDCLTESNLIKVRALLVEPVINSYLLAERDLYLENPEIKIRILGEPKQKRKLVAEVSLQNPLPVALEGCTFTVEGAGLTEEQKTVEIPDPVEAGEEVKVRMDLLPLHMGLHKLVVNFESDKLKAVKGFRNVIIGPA

[2] = molecular target: T2, Coagulation factor XIII A chain (Homo sapiens, UniProt P00488); experiment: Inhibition of human coagulation factor XIIIa assessed as inhibition of factor 13a mediated crosslinking of fibronectin-collagen incubated for 2 hrs by SDS-PAGE analysis
T2 sequence (P00488 whole entry): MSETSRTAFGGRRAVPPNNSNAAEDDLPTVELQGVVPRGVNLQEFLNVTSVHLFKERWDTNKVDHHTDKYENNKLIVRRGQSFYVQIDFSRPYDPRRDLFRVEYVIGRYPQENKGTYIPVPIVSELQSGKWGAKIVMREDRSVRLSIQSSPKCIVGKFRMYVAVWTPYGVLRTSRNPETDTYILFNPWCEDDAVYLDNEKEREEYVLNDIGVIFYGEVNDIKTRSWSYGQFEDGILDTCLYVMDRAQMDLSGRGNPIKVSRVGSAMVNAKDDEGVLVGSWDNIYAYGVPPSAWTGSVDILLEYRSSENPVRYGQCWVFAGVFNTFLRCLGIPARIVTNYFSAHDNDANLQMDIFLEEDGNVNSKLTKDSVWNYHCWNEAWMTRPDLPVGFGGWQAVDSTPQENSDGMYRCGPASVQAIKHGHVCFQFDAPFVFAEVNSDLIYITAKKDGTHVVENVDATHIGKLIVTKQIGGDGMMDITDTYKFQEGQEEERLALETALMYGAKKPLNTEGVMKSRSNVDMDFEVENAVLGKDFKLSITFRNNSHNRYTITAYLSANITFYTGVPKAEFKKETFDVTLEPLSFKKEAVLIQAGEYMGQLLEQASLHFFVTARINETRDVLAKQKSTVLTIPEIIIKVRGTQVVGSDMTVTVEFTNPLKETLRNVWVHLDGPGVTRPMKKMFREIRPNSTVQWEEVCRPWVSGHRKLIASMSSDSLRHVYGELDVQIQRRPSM

[3] = molecular target: T2, Coagulation factor XIII A chain; experiment: Inhibition of human plasma coagulation factor XIIIa by fluorescence spectrophotometeric assay; type: cell-free
[4] = molecular target: T2, Coagulation factor XIII A chain; experiment: Inhibition of human recombinant coagulation factor XIIIa
[5] = molecular target: T3, Coagulation factor XIII A chain (Bos taurus) (UniProt P12260); experiment: Inhibition of bovine plasma coagulation factor XIIIa assessed as threshold concentration by measuring insoluble fibrin per total fibrin incubated for 30 mins in presence of bovine fibrin by biuret method; type: cell-free
T3 sequence (whole entry): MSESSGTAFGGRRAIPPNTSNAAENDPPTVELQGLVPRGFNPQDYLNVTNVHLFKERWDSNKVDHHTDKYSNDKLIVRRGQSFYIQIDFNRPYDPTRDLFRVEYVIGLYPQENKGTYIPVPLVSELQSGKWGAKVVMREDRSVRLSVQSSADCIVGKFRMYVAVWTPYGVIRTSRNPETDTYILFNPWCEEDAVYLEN

[6] = Ratio of rate constant for human plasma coagulation factor XIIIa to rate constant for Glutathione (unknown origin)
[7] = molecular target: T4, Coagulation factor XIII A chain (Homo sapiens) (UniProt P00488); experiment: Binding affinity to human plasma coagulation factor XIIIa assessed as rate constant in presence of GSH by DTNB based UV-fluorescence assay; type: cell-free
T4 sequence (whole entry): T2 sequence (P00488 whole entry)

[8] = Inhibition of transglutaminase in guinea pig liver assessed as inhibition constant using Z-Gln-Gly as substrate by Michaelis-Menten analysis; type: tissue-based, Cavia porcellus
[9] = molecular target: T4, Coagulation factor XIII A chain (Homo sapiens); experiment: Inhibition of human coagulation factor XIIIa assessed as maximal inhibition of factor 13a mediated fibrin polymerization at 5 to 500 uM incubated for 24 hrs by SDS-PAGE analysis; settings: dose 5-500 µM
Homo sapiens [10] = species: Homo sapiens; experiment: Selectivity index, ratio of IC50 for inhibition of human coagulation factor XIIIa to IC50 for inhibition of human Factor Xa
[11] = Selectivity index, ratio of IC50 for inhibition of human coagulation factor XIIIa to IC50 for inhibition of papain (unknown origin)
[12] = molecular target: T4, Coagulation factor XIII A chain (Homo sapiens); experiment: Inhibition of human coagulation factor XIIIa assessed as enzyme residual activity at 100 uM in presence of polybrene by Spectrofluorometric assay
Homo sapiens [13] = species: Homo sapiens; experiment: Selectivity index, ratio of IC50 for inhibition of human coagulation factor XIIIa to IC50 for inhibition of human alpha-thrombin
[14] = molecular target: T4, Coagulation factor XIII A chain (Homo sapiens); experiment: Inhibition of human coagulation factor XIIIa assessed as maximal efficacy upto 20 nM
[15] = molecular target: T2, Coagulation factor XIII A chain; experiment: Inhibition of human plasma coagulation factor XIIIa; type: cell-free
[16] = molecular target: T2, Coagulation factor XIII A chain; experiment: Inhibition of human coagulation factor XIIIa
Canis familiaris [17] = experiment: Antithrombotic activity in Mongrel dog model of electrically-induced coronary artery thrombosis assessed as time to reperfusion at 0.1 mg/kg,iv pre-administered for 15 mins followed by electric impulse stimulation and t-PA and measured after 90 mins; type: functional, Canis lupus familiaris; settings: time 105 min, 1.75 h
Canis familiaris [18] = experiment: Antithrombotic activity in Mongrel dog model of electrically-induced coronary artery thrombosis assessed as time to occlusion at 0.1 mg/kg,iv pre-administered for 15 mins followed by electric impulse stimulation and t-PA and measured after 90 mins; type: functional, Canis lupus familiaris; settings: time 105 min, 1.75 h
Canis familiaris [19] = experiment: Antithrombotic activity in Mongrel dog model of electrically-induced coronary artery thrombosis assessed as reduction in residual thrombus mass at 0.1 mg/kg,iv pre-administered for 15 mins followed by electric impulse stimulation and t-PA and measured after 90 mins; type: functional, Canis lupus familiaris; settings: time 105 min, 1.75 h
Canis familiaris [20] = experiment: Antithrombotic activity in Mongrel dog model of electrically-induced coronary artery thrombosis assessed as re-occlusion rate at 0.1 mg/kg,iv pre-administered for 15 mins followed by electric impulse stimulation and t-PA and measured after 90 mins; type: functional, Canis lupus familiaris; settings: time 105 min, 1.75 h
[21] = Plasma concentration in New Zealand White rabbit at iv dosed upto 8 hrs by HPLC method; type: ADME, organism-based, Oryctolagus cuniculus
[22] = Half life in New Zealand White rabbit at iv dosed upto 8 hrs by HPLC method; type: ADME, organism-based, Oryctolagus cuniculus; settings: in vivo
[23] = Total clearance in New Zealand White rabbit at iv dosed upto 8 hrs by HPLC method; type: ADME, organism-based, Oryctolagus cuniculus; settings: in vivo

SMILES: C[C@@H]1CCC/C=C\C(=O)Cc2cc(O)cc(O)c2C(=O)O1
pIC50 [1]: 5.51

SMILES: NCCCNCCCCNCCCN [SPERMINE]
pIC50 [2]: 4.00

SMILES: CCC(C)[C@H](NC(=O)[C@H](CC(C)C)NC(=O)[C@H](CC/C=C/C(=O)OC)NC(=O)c1nc2ccccc2[nH]1)C(=O)N[C@@H](CC(C)C)C(=O)N1CCC[C@H]1C(=O)N[C@@H](Cc1c[nH]c2ccccc12)C(=O)N1CCC[C@H]1C(N)=O (stereo partly drawn) (X3-[X2]L[Ile(3ξ)]LPWP-NH2)
pIC50 [4]: 6.99

SMILES: Cc1c(C)[n+](C)c(SCC(=O)CSc2nnnn2C)n1C
Ratio [6]: 4.1 10^6No_unit | K [7]: 4.9 10^4/M/s

SMILES: CCCC[C@H](NC(=O)[C@H](CC/C=C/C(=O)OC)NC(=O)c1csc(C)n1)C(=O)N[C@H](C(=O)N[C@@H](CC(C)C)C(=O)N1CCC[C@H]1C(=O)N[C@@H](Cc1c[nH]c2ccccc12)C(N)=O)C(C)CC (stereo partly drawn) (X1-[X2][Nle][Ile(3ξ)]LPW-NH2)
pIC50 [4]: 6.86

SMILES: CC(=O)CSc1n(C)c(C)c(C)[n+]1C
Ratio [6]: 3.9 10^4No_unit | K [7]: 6.3 10^4/M/s

SMILES: CCOC(=O)c1nc(C(=O)N[C@@H](CC/C=C/C(=O)OC)C(=O)N[C@@H](CC(C)C)C(=O)N[C@H](C(=O)N[C@@H](CC(C)C)C(=O)N2CCC[C@H]2C(=O)N[C@@H](Cc2c[nH]c3ccccc23)C(=O)N2CCC[C@H]2C(N)=O)C(C)CC)cs1 (stereo partly drawn) (X4-[X2]L[Ile(3ξ)]LPWP-NH2)
pIC50 [4]: 7.54

SMILES: CC(=O)CSc1n(C)cc[n+]1C
Ratio [6]: 1.9 10^6No_unit | K [7]: 0.35 10^4/M/s

SMILES: O=c1c(OS(=O)(=O)O)c(-c2ccc(OS(=O)(=O)O)c(OS(=O)(=O)O)c2)oc2cc(OS(=O)(=O)O)cc(OCCOc3cc(-c4oc5cc(OS(=O)(=O)O)cc(OCCOc6cc(OS(=O)(=O)O)cc7oc(-c8ccc(OS(=O)(=O)O)c(OS(=O)(=O)O)c8)c(OS(=O)(=O)O)c(=O)c67)c5c(=O)c4OS(=O)(=O)O)ccc3OS(=O)(=O)O)c12
Efficacy [9]: 100% | Ratio IC50 (Homo sapiens [10]): 9 | Ratio IC50 [11]: 27 | Activity [12]: 85% | Ratio IC50 (Homo sapiens [13]): 26 | Efficacy [14]: 98%

SMILES: NC(=O)CI
Ratio [6]: 5 10^3No_unit | K [7]: 0.8 10^4/M/s

SMILES: CC(=O)CSc1n(C)c(-c2ccccc2)c(-c2ccccc2)[n+]1C
pIC50 [15]: 6.46

SMILES: NCCCCNCCCN [SPERMIDINE]
pIC50 [2]: 4.00

SMILES: CC(=O)CSc1n[n+]2c(C)csc2s1
Time (Canis familiaris [17]): 16.4 min | Time (Canis familiaris [18]): 44.4 min | Activity (Canis familiaris [19]): 1.7 mg | Activity (Canis familiaris [20]): 75%

SMILES: O=C(O)CCCCCCCCCCc1cc1=O
pIC50 [3]: 6.51

SMILES: O=C1C(OS(=O)(=O)O)=C(c2ccc(OS(=O)(=O)O)c(OCCCOc3cc(OS(=O)(=O)O)cc4oc(-c5ccc(OS(=O)(=O)O)c(OS(=O)(=O)O)c5)c(OS(=O)(=O)O)c(=O)c34)c2)OC2C=C(OS(=O)(=O)O)C=C(OCCCOc3cc(OS(=O)(=O)O)cc4oc(-c5ccc(OS(=O)(=O)O)c(OS(=O)(=O)O)c5)c(OS(=O)(=O)O)c(=O)c34)C12 (stereo not drawn)
pIC50 [16]: 3.93 | Efficacy [14]: 93%

Other lines, results leading:

pIC50 [3]: 6.21
SMILES: O=C(O)CCCCCCCc1cc1=O

pIC50 [3]: 7.59
SMILES: O=C(CCCCCCCc1cc1=O)NCCc1ccccc1

Activity [5]: 0.8 µg/mL
SMILES: Cc1ccc(C(=O)NCCCCCC(=O)CCl)cc1

pKi [8]: 4.31
SMILES: NCCCCCNC(=S)Nc1ccccc1

Activity [5]: 0.05 µg/mL
SMILES: Cc1ccc(S(=O)(=O)NCCCCCC(=O)CCl)cc1

Activity [5]: 50 µg/mL
SMILES: Cc1ccc(S(=O)(=O)NCCCCCCCCCCC(=O)CCl)cc1

pIC50 [16]: 6.70
SMILES: CC(=O)NCCc1ccc(O)cc1

concentration at 8 h [21]: 80 µM | half-life [22]: 7.8 min | clearance [23]: > 63.3 mL/min/kg
SMILES: O=[N+]([O-])c1ccccc1S(=O)(=O)NCCCCCCNc1nsc2nccn12

Activity [5]: 15 µg/mL
SMILES: Cc1ccc(S(=O)(=O)NCCCCNC(=O)CCl)cc1

Activity [5]: 40 µg/mL
SMILES: Cc1ccc(S(=O)(=O)NCCCCOC(=O)CCl)cc1

Activity [5]: 0.2 µg/mL
SMILES: O=C(CCl)CCCCCNS(=O)(=O)c1ccc(Cl)cc1

pIC50 [3]: 5.72
SMILES: O=C(O)CCCCCc1cc1=O

Activity [5]: 0.1 µg/mL
SMILES: Cc1ccc(S(=O)(=O)N(C)CCCCCC(=O)CCl)cc1
